Assay results published in the NIST ThermoML archive (doi:10.1016/j.fluid.2005.03.016).
Values joined by “and” are separate entries in the source; they are usually repeats but may differ in a detail not shown here. Equal entries are not always repeated. Numbers after ± are expanded uncertainties.

Details: Liquid, Closed cell (Static) method

Row | Structure (SMILES) | vapor or sublimation pressure (313.08 K) | vapor or sublimation pressure (313.1 K) | vapor or sublimation pressure (313.07 K) | other results
1 | CC(C)(C)O [2-methylpropan-2-ol] | 13.77 ± 0.41 kPa | – | – | –
2 | CC(C)C [2-methylpropane] | 530.05 ± 2.4 kPa and 529.95 ± 2.4 kPa | 529.95 ± 2.4 kPa | – | vapor or sublimation pressure (313.06 K): 529.65 ± 2.3 kPa; vapor or sublimation pressure (313.12 K): 530.75 ± 2.3 kPa
3 | CCC(C)O (centres undefined) [butan-2-ol] | – | 5.97 ± 0.4 kPa | – | –
4 | CCO [ethanol] | – | – | 17.77 ± 0.41 kPa | –
5 | CO [methanol] | – | – | 35.27 ± 0.43 kPa | –
6 | CC(C)O [propan-2-ol] | – | – | – | vapor or sublimation pressure (313.11 K): 13.77 ± 0.41 kPa
